In patent US20220056019A1, “FARNESOID X RECEPTOR AGONISTS AND USES THEREOF” (Metacrine, Inc., priority 2018, published 2022):

Molecular target: T1, hFXR (Homo sapiens, UniProt Q96RI1)
T1 construct: expressed in transfected cells; host or cells: CV-1 cells
T1 sequence (Q96RI1 1-486): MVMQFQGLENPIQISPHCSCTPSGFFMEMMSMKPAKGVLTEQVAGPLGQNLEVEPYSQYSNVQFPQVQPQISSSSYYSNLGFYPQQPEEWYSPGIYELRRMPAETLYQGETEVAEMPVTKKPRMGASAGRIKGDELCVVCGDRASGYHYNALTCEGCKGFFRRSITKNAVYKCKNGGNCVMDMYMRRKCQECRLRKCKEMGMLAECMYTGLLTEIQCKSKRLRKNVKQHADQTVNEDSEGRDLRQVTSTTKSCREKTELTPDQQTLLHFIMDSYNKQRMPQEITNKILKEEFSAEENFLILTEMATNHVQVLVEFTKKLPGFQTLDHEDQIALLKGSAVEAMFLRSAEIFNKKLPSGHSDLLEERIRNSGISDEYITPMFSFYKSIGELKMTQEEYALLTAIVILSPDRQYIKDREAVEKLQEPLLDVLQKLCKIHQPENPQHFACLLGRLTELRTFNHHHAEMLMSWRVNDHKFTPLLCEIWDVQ
T1 sequence (P19793 1-462 partner): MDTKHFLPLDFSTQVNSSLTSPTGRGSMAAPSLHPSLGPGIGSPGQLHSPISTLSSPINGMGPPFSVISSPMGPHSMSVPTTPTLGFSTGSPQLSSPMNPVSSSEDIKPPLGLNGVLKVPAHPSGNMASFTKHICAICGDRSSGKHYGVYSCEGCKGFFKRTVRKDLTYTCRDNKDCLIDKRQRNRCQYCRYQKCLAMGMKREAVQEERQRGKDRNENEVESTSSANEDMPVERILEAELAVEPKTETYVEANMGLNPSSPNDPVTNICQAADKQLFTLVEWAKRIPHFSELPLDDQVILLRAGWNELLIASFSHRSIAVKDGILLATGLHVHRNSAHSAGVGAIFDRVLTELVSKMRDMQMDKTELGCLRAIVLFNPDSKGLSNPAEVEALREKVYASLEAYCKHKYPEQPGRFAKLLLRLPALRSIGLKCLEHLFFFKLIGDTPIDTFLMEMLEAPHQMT
Assay: In Vitro FXR Assay (TK): TK-ECRE-luc reporter in transfected CV-1 cells
Format: cell-based
Conditions: 18 hrs incubation, luminescence
Method in brief: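 Luminescence from a TK-ECRE-luc reporter was read after 18 h of compound exposure in CV-1 cells. These cells were grown in charcoal-stripped FBS medium and transiently transfected with hFXR, hRXR and YFP expression plasmids.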

Compound | EC50
CC(C)n1cc(-c2ccnc(N(CC34CCC(C5CCCCC5)(CC3)CC4)C(=O)[C@H]3CC[C@H](OC(=O)N4CC(O)C4)CC3)c2)cn1 [Compound 26.15, 4-(((4-Cyclohexylbicyclo[2.2.2]octan-1-yl)methyl)(4-(1-isopropyl-1H-pyrazol-4-yl)pyridin-2-yl)carbamoyl)cyclohexyl trans-3-hydroxyazetidine-1-carboxylate] | ≤ 50 nM
COc1ccc(C23CCC(CN(c4cc(-c5cnn(C(C)C)c5)ccn4)C(=O)[C@H]4CC[C@H](OC(=O)N5CCC5)CC4)(CC2)CC3)cc1C [Compound 4.52, 4-((4-(1-Isopropyl-1H-pyrazol-4-yl)pyridin-2-yl) ((4-(4-methoxy-3-methylphenyl)bicyclo [2.2.2]octan-1-yl)methyl)carbamoyl)cyclohexyl trans-azetidine-1-carboxylate] | ≤ 50 nM
COc1ccc([C@H]2CC[C@H](CN(c3cc(-c4coc(C(C)C)n4)ccn3)C(=O)[C@H]3CC[C@H](OC(=O)NCC(C)(C)CO)CC3)CC2)nc1C [Compound 1.01, trans-4-((4-(2-Isopropyloxazol-4-yl)pyridin-2-yl)((trans-4-(5-methoxy-6-methylpyridin-2-yl)cyclohexyl)methyl)carbamoyl) cyclohexyl (3-hydroxy-2,2-dimethylpropyl)carbamate] | 50 to 1000 nM
COc1ccc(C23CCC(CN(c4cc(-c5cnn(C(C)C)c5)ccn4)C(=O)[C@H]4CC[C@H](NC(C)=O)CC4)(CC2)CC3)cc1C [Compound 10.05, trans-4-Acetamido-N-(4-(1-isopropyl-1H-pyrazol-4-yl)pyridin-2-yl)-N-((4-(4-methoxy-3-methylphenyl)bicyclo[2.2.2]octan-1-yl)methyl)cyclohexane-carboxamide] | ≤ 50 nM
COc1ccc(C23CCC(CN(c4cc(-c5cnn(C6(C)CCC6)c5)ccn4)C(=O)[C@H]4CC[C@H](OC(=O)N5CC(CO)C5)CC4)(CC2)CC3)cc1C [Compound 25.21, 4-(((4-(4-Methoxy-3-methylphenyl)bicyclo[2.2.2]octan-1-yl)methyl)(4-(1-(1-methylcyclobutyl)-1H-pyrazol-4-yl)pyridin-2-yl)carbamoyl)(trans-cyclohexyl) 3-(hydroxymethyl)azetidine-1-carboxylate] | ≤ 50 nM
COc1ccc([C@H]2CC[C@H](CN(c3cccc(-c4cnn(C(C)C)c4)c3)C(=O)[C@H]3CC[C@H](NC(=O)C4CC(O)C4)CC3)CC2)cc1C (stereo partly drawn) [Compound 14.02, (1r,4r)-4-(3-Hydroxycyclobutanecarboxamido)-N-(3-(1-isopropyl-1H-pyrazol-4-yl)phenyl)-N-((trans-4-(4-methoxy-3-methylphenyl)cyclohexyl)methyl) cyclohexanecarboxamide] | 50 to 1000 nM
COc1ccc([C@H]2CC[C@H](CN(c3cccc(-c4cnn(C(C)C)c4)c3)C(=O)[C@H]3CC[C@H](NC(=O)OCCO)CC3)CC2)cc1C [Compound 6.03, 2-Hydroxyethyl (trans-4-((3-(1-isopropyl-1H-pyrazol-4-yl)phenyl)((trans-4-(4-methoxy-3-methylphenyl)cyclohexyl)meth-yl)carbamoyl)cyclohexyl)carbamate] | ≤ 50 nM
COc1ccc([C@H]2CC[C@H](CN(c3cc(-c4cnc(N(C)C)nc4)ccn3)C(=O)[C@H]3CC[C@H](OC(=O)N4CC(O)C4)CC3)CC2)cc1C [Compound 3.01, trans-4-((4-(2-(Dimethylamino)pyrimidin-5-yl)pyridin-2-yl)((trans-4-(4-methoxy-3-methylphenyl)cyclohexyl)methyl)carbamoyl) cyclohexyl 3-hydroxyazetidine-1-carboxylate] | ≤ 50 nM
COc1ccc(C23CCC(CN(c4cc(-c5cnn(C6CCC6)c5)ccn4)C(=O)[C@H]4CC[C@H](OC(=O)N5CC(O)C5)CC4)(CC2)CC3)cc1C [Compound 23.08, 4-((4-(1-Cyclobutyl-1H-pyrazol-4-yl)pyridin-2-yl)((4-(4-methoxy-3-methylphenyl)bicyclo[2.2.2]octan-1-yl)methyl)carbamoyl)(trans-cyclohexyl) 3-hydroxyazetidine-1-carboxylate] | ≤ 50 nM
COc1ccc(C23CCC(CN(c4cc(-n5nnc(C(C)C)n5)ccn4)C(=O)[C@H]4CC[C@H](OC(=O)N5CC(O)C5)CC4)(CC2)CC3)cc1C [Compound 26.17, 4-((4-(5-Isopropyl-2H-tetrazol-2-yl)pyridin-2-yl)((4-(4-methoxy-3-methylphenyl)bicyclo[2.2.2]octan-1-yl)methyl)carbamoyl)cyclohexyl trans-3-hydroxyazetidine-1-carboxylate] | 1000 to 10000 nM
CCc1nc(-c2ccnc(N(C[C@H]3CC[C@H](c4ccc(OC)c(C)c4)CC3)C(=O)[C@H]3CC[C@H](OC(=O)NCC(C)(C)O)CC3)c2)co1 [Compound 2.49, trans-4-((4-(2-Ethyloxazol-4-yl)pyridin-2-yl)((trans-4-(4-methoxy-3-methylphenyl)cyclohexyl)methyl)carbamoyl)cyclohexyl (2-hydroxy-2-methylpropyl)carbamate] | ≤ 50 nM
COc1ccc(C23CCC(CN(c4cc(-c5cnn(C(C)C)c5)ccn4)C(=O)[C@H]4CC[C@H](OC(=O)N5CC(OC(C)C)C5)CC4)(CC2)CC3)cc1C [Compound 23.11, 4-((4-(1-Isopropyl-1H-pyrazol-4-yl)pyridin-2-yl)((4-(4-methoxy-3-methylphenyl)bicyclo[2.2.2]octan-1-yl)methyl)carbamoyl)(trans-cyclohexyl) 3-isopropoxy-azetidine-1-carboxylate] | ≤ 50 nM
COc1ccc([C@H]2CC[C@H](CN(c3cc(-c4cnn(C(C)C)c4)ccn3)C(=O)[C@H]3CC[C@H](OC(=O)NC(C)C)CC3)CC2)cc1C [Compound 2.17, trans-4-((4-(1-Isopropyl-1H-pyrazol-4-yl)pyridin-2-yl)(((trans)-4-(4-methoxy-3-methylphenyl)cyclohexyl)methyl)carbamoyl) cyclohexyl isopropylcarbamate] | ≤ 50 nM
COc1ccc(C23CCC(CN(c4cc(-c5cnn(C6CCC6)c5)ncn4)C(=O)[C@H]4CC[C@H](OC(=O)N5CC(O)C5)CC4)(CC2)CC3)cc1C [Compound 23.23, 4-((6-(1-Cyclobutyl-1H-pyrazol-4-yl)pyrimidin-4-yl)((4-(4-methoxy-3-methylphenyl)bicyclo[2.2.2]octan-1-yl)methyl)carbamoyl)(trans-cyclohexyl) 3-hydroxyazetidine-1-carboxylate] | ≤ 50 nM
COc1ccc(C23CCC(CN(c4ncc(F)c(-c5cnn(C(C)C)c5)c4F)C(=O)[C@H]4CC[C@H](OC(=O)N5CC(O)C5)CC4)(CC2)CC3)cc1C [Compound 25.14, 4-((3,5-Difluoro-4-(1-isopropyl-1H-pyrazol-4-yl)pyridin-2-yl)((4-(4-methoxy-3-methylphenyl)bicyclo[2.2.2]octan-1-yl)methyl)carbamoyl)(trans-cyclohexyl) 3-hydroxyazetidine-1-carboxylate] | ≤ 50 nM
COc1ccc([C@H]2CC[C@H](CN(c3cc(-c4coc(C5CC5)n4)ccn3)C(=O)[C@H]3CC[C@H](OC(=O)N4CCN(C)CC4)CC3)CC2)cc1Cl [Compound 2.07, trans-4-(((trans-4-(3-Chloro-4-methoxyphenyl)cyclohexyl)methyl)(4-(2-cyclopropyloxazol-4-yl)pyridin-2-yl)carbamoyl)cyclohexyl 4-methylpiperazine-1-carboxylate] | ≤ 50 nM
